Source: paper PMC7824111, “Targeting Cytokinin Homeostasis in Rapid Cycling Brassica rapa with Plant Growth Regulators INCYDE and TD-K” (Plants, 2020)

Legend:
AHK3 = target: T1, AHK3 (Arabidopsis thaliana, UniProt Q9C5U1); assay: E. coli receptor activation assay; format: cell-based
T1 sequence (Q9C5U1 1-1036): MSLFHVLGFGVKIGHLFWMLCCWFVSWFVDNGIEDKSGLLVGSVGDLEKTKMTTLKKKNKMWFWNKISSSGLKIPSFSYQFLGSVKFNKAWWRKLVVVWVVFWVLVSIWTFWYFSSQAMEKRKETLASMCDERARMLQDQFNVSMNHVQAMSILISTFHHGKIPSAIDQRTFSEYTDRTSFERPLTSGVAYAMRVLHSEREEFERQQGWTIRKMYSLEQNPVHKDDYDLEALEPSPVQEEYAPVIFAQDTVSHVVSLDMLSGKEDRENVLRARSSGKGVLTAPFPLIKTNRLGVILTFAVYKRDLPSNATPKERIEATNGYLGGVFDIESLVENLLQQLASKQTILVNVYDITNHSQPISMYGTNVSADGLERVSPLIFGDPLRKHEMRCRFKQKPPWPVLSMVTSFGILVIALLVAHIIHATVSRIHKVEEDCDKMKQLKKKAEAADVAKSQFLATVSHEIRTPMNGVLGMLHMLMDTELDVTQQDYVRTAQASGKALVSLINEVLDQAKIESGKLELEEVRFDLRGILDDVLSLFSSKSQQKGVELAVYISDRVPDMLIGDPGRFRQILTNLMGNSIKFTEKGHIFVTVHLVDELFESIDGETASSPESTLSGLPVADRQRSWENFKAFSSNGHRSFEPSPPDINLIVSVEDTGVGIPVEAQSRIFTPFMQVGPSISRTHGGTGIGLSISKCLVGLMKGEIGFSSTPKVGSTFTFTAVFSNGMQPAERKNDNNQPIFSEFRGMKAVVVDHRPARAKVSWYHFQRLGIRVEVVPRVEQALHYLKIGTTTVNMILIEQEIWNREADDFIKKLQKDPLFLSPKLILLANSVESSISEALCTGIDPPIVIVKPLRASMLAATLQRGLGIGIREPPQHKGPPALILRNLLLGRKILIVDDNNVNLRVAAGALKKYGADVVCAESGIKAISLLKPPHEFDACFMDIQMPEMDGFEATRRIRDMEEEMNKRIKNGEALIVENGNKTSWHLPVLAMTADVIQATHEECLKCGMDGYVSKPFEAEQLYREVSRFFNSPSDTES

CRE1/AHK4 = CRE1/AHK4 (Arabidopsis thaliana, UniProt Q9C5U0); assay: E. coli receptor activation assay; format: cell-based
Sequence of CRE1/AHK4 (Q9C5U0 whole entry): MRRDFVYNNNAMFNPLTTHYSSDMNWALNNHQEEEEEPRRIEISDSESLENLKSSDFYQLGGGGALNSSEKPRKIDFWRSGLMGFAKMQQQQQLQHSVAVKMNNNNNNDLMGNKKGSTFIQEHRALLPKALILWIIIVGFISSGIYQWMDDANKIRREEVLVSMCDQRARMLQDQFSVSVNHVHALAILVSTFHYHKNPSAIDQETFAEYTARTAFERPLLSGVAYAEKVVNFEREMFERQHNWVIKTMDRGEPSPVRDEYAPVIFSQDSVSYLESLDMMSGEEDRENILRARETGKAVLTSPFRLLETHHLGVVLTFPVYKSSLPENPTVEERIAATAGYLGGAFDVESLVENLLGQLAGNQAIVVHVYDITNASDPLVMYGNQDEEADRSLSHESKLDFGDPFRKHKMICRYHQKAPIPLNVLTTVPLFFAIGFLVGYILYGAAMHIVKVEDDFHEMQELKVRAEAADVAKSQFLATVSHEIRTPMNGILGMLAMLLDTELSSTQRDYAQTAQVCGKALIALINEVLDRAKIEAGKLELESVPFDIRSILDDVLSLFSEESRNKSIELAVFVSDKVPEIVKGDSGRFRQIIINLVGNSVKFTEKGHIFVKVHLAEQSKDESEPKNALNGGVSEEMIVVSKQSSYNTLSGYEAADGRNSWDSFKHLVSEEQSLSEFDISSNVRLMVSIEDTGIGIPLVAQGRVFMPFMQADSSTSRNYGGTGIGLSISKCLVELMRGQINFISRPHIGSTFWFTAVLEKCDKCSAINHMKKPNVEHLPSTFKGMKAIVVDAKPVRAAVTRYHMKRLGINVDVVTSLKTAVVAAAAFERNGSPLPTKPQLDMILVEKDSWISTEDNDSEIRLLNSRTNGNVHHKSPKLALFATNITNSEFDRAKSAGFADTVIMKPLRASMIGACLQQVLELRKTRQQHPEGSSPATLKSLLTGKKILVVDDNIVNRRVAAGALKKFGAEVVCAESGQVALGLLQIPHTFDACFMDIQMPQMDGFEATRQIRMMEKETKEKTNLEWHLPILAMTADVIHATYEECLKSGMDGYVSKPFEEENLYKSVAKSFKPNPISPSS

SMILES	E. coli receptor activation assay (AHK3)	E. coli receptor activation assay (CRE1/AHK4)
O=C(Nc1ccccc1)Nc1cnns1 [TDZ, 1-phenyl-3-(1,2,3-thiadiazol-5-yl) urea]	~ 10 nM	~ 1 μM
O=C(NCc1ccccc1)Nc1cnns1 [TD-BA]	–	~ 50 μM
C/C(=C\CNc1ncnc2[nH]cnc12)CO [tZ, trans-zeatin]	~ 10 nM	~ 1 μM
